Measurements published in patent US6652860B1, “Peptide, apoEp 1.B, compositions and uses thereof” (University of Western Ontario, priority 1997, dated 2003).
Where no end group is shown, it is not given here.

Legend:
PU5-1.8 cells [1] = test: DC marker changes (B7-1 FACS) of PU5-1.8 cells incubated with modified apoEp1.B peptides; assay type: cell-based, murine; details: 20 hours
Procedure: Murine monocytic PU5-1.8 and J77A1.4 transformed cell lines, human monoblastic leukemia THP-1 and U-937, and murine B cell lymphoma A20 cells were cultured in RPMI 1640 medium (Gibco Laboratories, Grand Island, N.Y.) containing […] 2ME, 10 mM HEPES, 2 mM glutamine, 5.0 IU/ml penicillin streptomycin (Gibco) and 10%. heat inactivated Fetal Bovine Serum (FBS) (Hyclone Laboratories Inc., Logan, Utah)(cRPMI).
1×10^6 cells were washed with ice cold PBS and resuspended in 25 μl PBS and incubated with 10 μl normal mouse serum and fluorochrome conjugated anti-mouse D11a, CD11b, CD14, MHC class II, CD95, CD62L, CD62E, B7-1, B7-2 and ICAM-1 Pharmingen, Mississauga, Canada) monoclonal antibodies (mAb's) for 45 minutes on ice. endritic cell markers DEC-205, 33D1, CD11c (N418) unconjugated antibodies were imilarly treated, however, following primary antibody incubation,cells were washed 3 times and a secondary goat anti-rat (for 33D1 and DEC-205 ab's) and goat anti-hamster (for CD11c ab) fluorochrome-conjugated antibody was then added for 45 min on ice. Cells were then washed three times. All samples were resuspended in 300 μl PBS and the fluorescence of stained cells was analyzed on a FACScan flow cytometer (Becton Dickinson, Mountain View, Calif.) and data collected was analyzed using Lysis II (Becton-Dickinson) software. […]

PU5-1.8 cells [2] = test: DC-like surface marker expression on PU5-1.8 cells (FACS); assay type: cell-based, murine; details: 100 μg/ml, 24 hr, 10^5 PU5-1.8 cells
Procedure: (§1) 1×10^6 cells were washed with ice cold PBS and resuspended in 25 μl PBS and incubated with 10 μl normal mouse serum and fluorochrome conjugated anti-mouse D11a, CD11b, CD14, MHC class II, CD95, CD62L, CD62E, B7-1, B7-2 and ICAM-1 Pharmingen, Mississauga, Canada) monoclonal antibodies (mAb's) for 45 minutes on ice. endritic cell markers DEC-205, 33D1, CD11c (N418) unconjugated antibodies were imilarly treated, however, following primary antibody incubation,cells were washed 3 times and a secondary goat anti-rat (for 33D1 and DEC-205 ab's) and goat anti-hamster (for CD11c ab) fluorochrome-conjugated antibody was then added for 45 min on ice. Cells were then washed three times. All samples were resuspended in 300 μl PBS and the fluorescence of stained cells was analyzed on a FACScan flow cytometer (Becton Dickinson, Mountain View, Calif.) and data collected was analyzed using Lysis II (Becton-Dickinson) software.
(§2) Morphologically apoEp1.B-treated cells appeared DC-like. This was confirmed this by FACS analysis. Unprimed BALB/c splenocytes and PU5-1.8 cells were incubated for 24 hr with 100 μg/ml apoEp1.B or control peptide apoEp1.D and then stained for FACS analysis.
To assess whether apoEp1.B-induced phenotypic changes are dose-dependent, 10^5 PU5-1.8 cells were incubated for 20 hr with 0 (medium), 1, 10 or 100 μg/ml apoEp1.B in 24-well plates and were then stained for FACS analysis. […]

immune cells = test: Activation and differentiation of immune cells; assay type: cell-based
splenocytes = test: Surface marker expression on unprimed splenocytes (FACS); assay type: cell-based, mice; details: splenocytes (data not shown)
Procedure: as §1, §2
There were no changes in the expression of CD16/32 at any time.
Unprimed B6 and NOD splenocytes were incubated with 100 μg/ml apoEp1.B or apoEp1.D to determine whether apoEp1.B was strain-specific. […]

[3] = tested on: BALB/c naive T cells co-cultured with NOD splenocytes; test: Mixed leukocyte reaction, T cell allostimulatory activity of treated APC's; assay type: cell-based, mice; details: particularly at 4×10^3 APC's per well
Procedure: Primary allogeneic MLR was set up with NOD splenocytes as stimulators and nylon wool enriched BALB/c naive T cells as responders. Stimulator cells were pre-incubated for 3 days with different combinations of apoEp1.B, GM-CSF, and PU5-1.8 supernatant containing TNF. Stimulator cells were then treated with mitomycin C (50 μg/ml, 20 min at 37° C.; Sigma) and co-cultured with 4×10^4 responder for 3 days at which time cells were pulsed with 50 μl [^3H]-TdR (0.5 μCi/well) for 24 hr. Cells were harvested (Tomtec) and [^3H]-TdR incorporation was measured on a Microbeta Liquid Scintillation Counter (Wallac). Each bar represents the mean cpm from triplicate cultures.
To measure the T cell allostimulatory or inhibitory ability of these DC's, 4×10^4 enriched BALB/c naive T cells were co-cultured with 40, 400, 4000 and 40,000 mitomycin C-treated NOD splenocytes which had been incubated with various stimualants for 3 d. T cell proliferation was measured following 3 days of co-culture by [^3H]-TdR incorporation. Bars represent the mean of triplicate wells (cpm+/−S.D.). * and ** represent p<0.05 and p<0.001, respectively in 2-way ANOVA's compared to medium alone (nil) controls. […] Upon combining responder T cells with APC, various exogenous factors were added, including 20 μg/ml Con A and 5 μg/ml apoEp1.B. Very little proliferation was detected in wells containing T cells alone or APC alone.

[4] = tested on: iliofemoral artery of the rat; test: Balloon angioplasty injury model, plaque development in iliofemoral artery; assay type: in vivo; details: treated rats
Procedure: To investigate the role of apoEp1.B peptide in inflammation, particularly in response to arterial injury, a balloon angioplasty injury model which has been well characterized by Dr. Alex Lucas (Lucas et al. 1996 Circ. 94:2898-900) was used. 300 μg/ml of apoEp1 or apoEp1.B peptide were infused intra-arterially immediately prior to angioplasty at the site of injury in the iliofemoral artery of the rat. Positive control SERP-1 and negative control saline alone were also used. The rats were monitored carefully and euthanized 6 weeks after treatment and iliofemoral arteries were assessed for plaque development by histochemistry.

[5] = tested on: Unprimed splenocytes, enriched spleen monocytes and monocytic PU5-1.8 and J77A4.1 cell lines; test: Dendritic-like cell morphology in vitro; assay type: cell-based, BALB/c mice; details: after 2 hr, optimally at 100 μg/ml
Procedure: Unprimed splenocytes, enriched spleen monocytes and monocytic PU5-1.8 and J77A4.1 cell lines from BALB/c mice were incubated with 0, 1, 10, or 100 μg/ml apoEp1.B (239-252) or negative control apoEp1.D (236-249) peptide to assess activity. […] After 24 hr, morphologically these cells appeared less rounded, more granular.

## AQQIRLQAEAFQAR (listed as Homo sapiens) [human apoEp1.B]
PU5-1.8 cells [1]; 100 μg/ml, PU5-1.8 cells
  effect on surface marker changes compared to apoEp1.B: slightly reduced effect
PU5-1.8 cells [2]
  cell clustering and marker increase compared to murine apoEp1.B: to a lesser degree

## EEQ TQQ IRL QAE IFQ AR (EEQTQQIRLQAEIFQAR; Murine) [apoEp1]
Immune cells
  induces activation and differentiation of immune cells: does not induce DC's
PU5-1.8 cells [1]; Table 1 elongations and truncations, 100 μg/ml peptide, 10^5 PU5-1.8 cells, B7-1 stain, FACS
  DC Marker Changes: slight
splenocytes
  CD40 expression: increase in CD40
  L-selectin expression: decrease in L-selectin

## GM-CSF: cytokine used to pre-incubate stimulator cells in MLR
[3]
  allostimulation after APC pre-incubation: dramatic increase in allostimulation

## TQQIRLQAEIFQAR [apoEp1.B, TQQIRLQAEIFQAR]
[4]
  adverse effects: No adverse effects were observed

## apoE: Human plasma VLDL purified apoE (Calbiochem) was used as native apoE
Immune cells
  induces activation and differentiation of immune cells: not

## apoEp1.D: negative control apoEp1.D (236-249) peptide (VAEVRAKLEEQAQQ; UniProt P02649 254-267, looked up, fragment)
[5]
  detachment from plastic plates and aggregation in suspension: not
